Measured values: PubChem BioAssay AID1918952 (Molecular Pharmacology Branch, DTP, NCI, 2023)

Tested on: LG0703-F948-PDC complex spheroid viability
Assay: Anticancer human tumor LG0703-F948-PDC patient-derived lung adenocarcinoma cell line growth inhibition
Conditions: for IC50: curve of first compound; for viability, T/C: stronger effect = lower value
Summary of the method: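 Multicellular complex spheroids of tumor cells with human endothelial cells (HUVEC) and mesenchymal stem cells; the LSD1 inhibitor iadademstat was combined with standard-of-care or investigational agents. Top concentration at or near clinical Cmax, half-log dilutions; final DMSO ≤0.25%.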

[1] = second compound 0.1 µM, first compound 0.0316 µM
[2] = second compound 0.1 µM, first compound 0.1 µM
[3] = second compound 0.1 µM, first compound 0.316 µM
[4] = second compound 0.1 µM, first compound 1 µM
[5] = second compound 0.1 µM, first compound 3.16 µM
[6] = second compound 0.1 µM, first compound 10 µM
[7] = second compound 0.316 µM, first compound 0.0316 µM
[8] = second compound 0.316 µM, first compound 0.1 µM
[9] = second compound 0.316 µM, first compound 0.316 µM
[10] = second compound 0.316 µM, first compound 1 µM
[11] = second compound 0.316 µM, first compound 3.16 µM
[12] = second compound 0.316 µM, first compound 10 µM
[13] = second compound 1 µM, first compound 0.0316 µM
[14] = second compound 1 µM, first compound 0.1 µM
[15] = second compound 1 µM, first compound 0.316 µM
[16] = second compound 1 µM, first compound 1 µM
[17] = second compound 1 µM, first compound 3.16 µM
[18] = second compound 1 µM, first compound 10 µM
[19] = second compound 3.16 µM, first compound 0.0316 µM
[20] = second compound 3.16 µM, first compound 0.1 µM
[21] = second compound 3.16 µM, first compound 0.316 µM
[22] = second compound 3.16 µM, first compound 1 µM
[23] = second compound 3.16 µM, first compound 3.16 µM
[24] = second compound 3.16 µM, first compound 10 µM
[25] = second compound 10 µM, first compound 0.0316 µM
[26] = second compound 10 µM, first compound 0.1 µM
[27] = second compound 10 µM, first compound 0.316 µM
[28] = second compound 10 µM, first compound 1 µM
[29] = second compound 10 µM, first compound 3.16 µM
[30] = second compound 10 µM, first compound 10 µM
[31] = second compound 0.1 µM, first compound 0.00316 µM
[32] = second compound 0.1 µM, first compound 0.01 µM
[33] = second compound 0.316 µM, first compound 0.00316 µM
[34] = second compound 0.316 µM, first compound 0.01 µM
[35] = second compound 1 µM, first compound 0.00316 µM
[36] = second compound 1 µM, first compound 0.01 µM
[37] = second compound 3.16 µM, first compound 0.00316 µM
[38] = second compound 3.16 µM, first compound 0.01 µM
[39] = second compound 10 µM, first compound 0.00316 µM
[40] = second compound 10 µM, first compound 0.01 µM
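Note: spheroids exposed to agents for seven days before readout.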
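Throughout, for viability, T/C: 100% = DMSO vehicle control wells as normalization base.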

| SMILES | IC50 (second compound 0.1 µM) | IC50 (second compound 0.316 µM) | IC50 (second compound 1 µM) | IC50 (second compound 3.16 µM) | IC50 (second compound 10 µM) | viability, T/C [1] | viability, T/C [2] | viability, T/C [3] | viability, T/C [4] | viability, T/C [7] | viability, T/C [8] | viability, T/C [9] | viability, T/C [10] | viability, T/C [13] | viability, T/C [14] | viability, T/C [15] | viability, T/C [16] | viability, T/C [19] | viability, T/C [20] | viability, T/C [21] | also measured |
| --- | --- | --- | --- | --- | --- | --- | --- | --- | --- | --- | --- | --- | --- | --- | --- | --- | --- | --- | --- | --- | --- |
| CC(C)c1c(-c2ccccc2)nc2c(C#N)c[nH]n2c1=O + NC1CC1c1ccc(-c2cccc(O)c2)cc1 | > 10000 nM | > 10000 nM | > 10000 nM | > 10000 nM | > 10000 nM | 107% | 102% | 115% | 94.3% | 97.5% | 106% | 117% | 108% | 102% | 109% | 109% | 109% | 97.7% | 93.4% | 92.5% | viability, T/C [5]: 110%; viability, T/C [6]: 82.7%; viability, T/C [11]: 104%; viability, T/C [12]: 91.8%; viability, T/C [17]: 90.6%; viability, T/C [18]: 69.7%; viability, T/C [22]: 99.8%; viability, T/C [23]: 80.3%; viability, T/C [24]: 82.3%; viability, T/C [25]: 97.9%; viability, T/C [26]: 97.6%; viability, T/C [27]: 94.9%; viability, T/C [28]: 85.3%; viability, T/C [29]: 88.8%; viability, T/C [30]: 74.2% |
| CC1COCCN1c1cc(-c2ccnn2C)c2ccnc(-c3ccn[nH]3)c2n1 (stereo not given) + NC1CC1c1ccc(-c2cccc(O)c2)cc1 | 37.4 nM | 44.4 nM | 49.1 nM | 43.7 nM | 46.3 nM | 49.8% | 32.7% | 20.2% | 7.17% | 57.9% | 33.9% | 18.7% | 6.39% | 64.1% | 27.9% | 21.6% | 6.68% | 55.7% | 31.4% | 19.1% | viability, T/C [31]: 80.4%; viability, T/C [32]: 74.6%; viability, T/C [33]: 85.5%; viability, T/C [34]: 72.3%; viability, T/C [35]: 73%; viability, T/C [36]: 70.2%; viability, T/C [37]: 80.8%; viability, T/C [38]: 77%; viability, T/C [22]: 6.21%; viability, T/C [39]: 91.1%; viability, T/C [40]: 82.3%; viability, T/C [25]: 60.4%; viability, T/C [26]: 28.6%; viability, T/C [27]: 18.8%; viability, T/C [28]: 8.21% |
| COc1ccc([C@@H](O)c2cc(-c3ncnc4cc(N5CCOCC5)ccc34)c(F)cc2Cl)nn1 + NC1CC1c1ccc(-c2cccc(O)c2)cc1 | 1520 nM | 1590 nM | 1490 nM | 1210 nM | 1140 nM | 90.3% | 110% | 96.5% | 61% | 112% | 98.2% | 98.7% | 68.2% | 98.8% | 96.7% | 98.7% | 63.8% | 107% | 101% | 86.1% | viability, T/C [5]: 27.2%; viability, T/C [6]: 3.8%; viability, T/C [11]: 23%; viability, T/C [12]: 4.64%; viability, T/C [17]: 21.7%; viability, T/C [18]: 3.41%; viability, T/C [22]: 59.2%; viability, T/C [23]: 16.3%; viability, T/C [24]: 2.59%; viability, T/C [25]: 108%; viability, T/C [26]: 99.4%; viability, T/C [27]: 90.4%; viability, T/C [28]: 57.9%; viability, T/C [29]: 7.24%; viability, T/C [30]: 2.33% |
| O=C(C=Cn1cnc(-c2cc(C(F)(F)F)cc(C(F)(F)F)c2)n1)NNc1cnccn1 + NC1CC1c1ccc(-c2cccc(O)c2)cc1 | 12.1 nM | 18 nM | 25.9 nM | 69.1 nM | 114 nM | 38.8% | 34.7% | 31.8% | 25.4% | 40% | 36.2% | 26% | 24.6% | 47% | 39.5% | 29.5% | 22.6% | 64% | 43.6% | 22.4% | viability, T/C [31]: 62.2%; viability, T/C [32]: 54.6%; viability, T/C [33]: 67.6%; viability, T/C [34]: 58.9%; viability, T/C [35]: 70.4%; viability, T/C [36]: 58.8%; viability, T/C [37]: 70.4%; viability, T/C [38]: 67.7%; viability, T/C [22]: 22%; viability, T/C [39]: 75.8%; viability, T/C [40]: 73.1%; viability, T/C [25]: 64.2%; viability, T/C [26]: 54.9%; viability, T/C [27]: 31.7%; viability, T/C [28]: 23.7% |
| Nc1ncn(C2CC(O)C(CO)O2)c(=O)n1 (stereo not given) + NC1CCC(NC2CC2c2ccccc2)CC1 | > 1000 nM | > 1000 nM | > 1000 nM | > 1000 nM | > 1000 nM | 98% | 96.3% | 95.4% | 81.9% | 110% | 98.7% | 102% | 98.5% | 130% | 106% | 97% | 112% | 117% | 111% | 131% | viability, T/C [31]: 101%; viability, T/C [32]: 102%; viability, T/C [33]: 114%; viability, T/C [34]: 118%; viability, T/C [35]: 107%; viability, T/C [36]: 126%; viability, T/C [37]: 122%; viability, T/C [38]: 121%; viability, T/C [22]: 101%; viability, T/C [39]: 122%; viability, T/C [40]: 141%; viability, T/C [25]: 111%; viability, T/C [26]: 114%; viability, T/C [27]: 113%; viability, T/C [28]: 122% |
